Laboratory results: article PMC10970644, “Molecular Pharmacology of Gelsemium Alkaloids on Inhibitory Receptors” (International Journal of Molecular Sciences, 2024)

Columns and labels:
[1] = humans; cited from earlier work
chimeric α1α2 GlyR = biological target: T1, chimeric α1α2 GlyR (Rattus norvegicus, UniProt P07727+P22771, F345L/G282A/I268V/L342F/S324A); assay type: cell-based
T1 construct: Relevance of the ECD for the subunit-specific actions of gelsemine on α1GlyRs; expressed in transfected cells; host or cells: HEK293 (ATCC CRL-1573)
T1 sequence (P07727+P22771 with tags, fused parts or gaps P07727:I268V/P07727:G282A/P07727:S324A/P07727:L342F/P07727:F345L): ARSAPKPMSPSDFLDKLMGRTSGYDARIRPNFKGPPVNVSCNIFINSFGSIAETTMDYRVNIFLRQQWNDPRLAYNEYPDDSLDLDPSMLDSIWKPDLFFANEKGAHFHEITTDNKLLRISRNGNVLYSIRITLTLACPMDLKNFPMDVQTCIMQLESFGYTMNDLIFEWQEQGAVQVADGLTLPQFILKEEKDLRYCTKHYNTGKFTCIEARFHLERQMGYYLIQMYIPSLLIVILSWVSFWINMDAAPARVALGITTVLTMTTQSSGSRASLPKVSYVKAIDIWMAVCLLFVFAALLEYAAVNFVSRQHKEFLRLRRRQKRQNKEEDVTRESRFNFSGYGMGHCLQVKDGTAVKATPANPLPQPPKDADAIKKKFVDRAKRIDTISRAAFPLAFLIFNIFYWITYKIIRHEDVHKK
Description: (§1) The cells were transfected with plasmids encoding the following proteins: (i). rat GlyR α (1, 2, 3) subunits alone or combined with rat β subunits (Uniprot Accession Numbers: Q546L7, P22771, P20236, P20781); and (ii). rat GABAAR α1 combined with rat β2 and γ2 subunits (Uniprot Accession Numbers: P62813, P63138, P18508). The EGFP expression was used as a marker of successful protein expression. The transfection was performed using Lipofectamine 2000 (Invitrogen, ThermoFisher, Carlsbad, CA, USA) using the fabricant protocol. The plasmids used to express GlyRs and GABAARs have been previously described. To track the successful expression of GlyR β subunits and the GABAA γ2 or β2 subunit, these proteins were subcloned in the pIRES2-EGFP vector. The transfection ratio to obtain β-containing GlyRs was 1:5 of α:β, while the expression of γ2-containing GABAA receptors was 1:2:5 of α:β:γ2 [14, 15]. Chimeric GlyRs were described in a previous report. Site directed mutagenesis was performed by Charm Gene Science Mutagenex LLC. (Cumming, GA, USA). All the constructs were checked by full-length sequencing (SNPSaurus, Eugene, OR, USA).
(§2) In brief, patch electrodes (3–4 MΩ) were pulled from borosilicate glasses in a PC-100 puller (Narishige, Tokyo, Japan); then, they were filled with an intracellular solution, which contained (in mM) 120 CsCl, 8 EGTA, 10 HEPES (pH 7.4), 4 MgCl2, 0.5 GTP, and 2 ATP. The extracellular solution contained (in mM) 140 NaCl, 5.4 KCl, 2.0 CaCl2, 1.0 MgCl2, 10 HEPES (pH 7.4), and 10 glucose. Whole-cell patch-clamp recordings were performed at −60 mV with an Axoclamp 200B (Molecular Devices, Sunnyvale, CA, USA) or with HEKA EPC-10 (HEKA Elektronik GmbH, Reutlingen, Germany) amplifiers. […] Brief (3–5 s) pulses of agonist together with alkaloids were applied to cells. Stock solutions of the alkaloids were prepared in high purity distilled water. Aliquots of these stock solutions were diluted in reservoirs containing extracellular solution. […] The concentration–response curve parameters for the alkaloid inhibition (IC50, nH, and the maximal current inhibition) were obtained from the fitted curve of normalized concentration–response data points to the equation Iagonist = Imax (agonist)nH/((agonist)nH + (EC50)nH). The IC50 curves are best-fit mean ± SE from pooled data. […] The concentration of agonist corresponds to the sub-saturating agonist concentration used to obtain the IC50 for each alkaloid on a given GlyR subtype.

chimeric α2α1 GlyR = biological target: T2, chimeric α2α1 GlyR (Rattus norvegicus, UniProt P07727+P22771, A288G/A330S/F348L/L351F/V274I); assay type: cell-based
T2 construct: Relevance of the ECD for the subunit-specific actions of gelsemine on α1GlyRs; fusion partner: GlyR α1 transmembrane and C-terminal part (Glra1, printed Q546L7); expressed in transfected cells; host or cells: HEK293 (ATCC CRL-1573)
T2 sequence (P22771+P07727 with tags, fused parts or gaps P22771:V274I/P22771:A288G/P22771:A330S/P22771:F348L/P22771:L351F): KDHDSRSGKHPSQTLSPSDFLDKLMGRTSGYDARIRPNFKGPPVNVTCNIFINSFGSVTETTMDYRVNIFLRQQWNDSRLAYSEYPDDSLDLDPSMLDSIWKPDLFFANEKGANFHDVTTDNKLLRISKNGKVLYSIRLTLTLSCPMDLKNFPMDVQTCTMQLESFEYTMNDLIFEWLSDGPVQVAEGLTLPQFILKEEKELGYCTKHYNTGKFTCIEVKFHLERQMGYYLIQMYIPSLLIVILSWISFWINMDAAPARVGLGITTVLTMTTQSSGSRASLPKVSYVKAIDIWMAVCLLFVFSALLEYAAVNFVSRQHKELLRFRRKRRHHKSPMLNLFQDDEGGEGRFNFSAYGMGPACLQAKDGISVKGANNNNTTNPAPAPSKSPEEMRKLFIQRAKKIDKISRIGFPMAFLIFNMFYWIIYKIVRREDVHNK
Description: as §1, §2

α3β GlyR = biological target: T3, α3β GlyR (Rattus norvegicus, UniProt P20781+P24524); experiment: cell-based; assay type: cell-based
T3 construct: The cells were transfected with plasmids encoding the following proteins; expressed in transfected cells; host or cells: HEK293 (ATCC CRL-1573)
T3 sequence (P24524 34-464): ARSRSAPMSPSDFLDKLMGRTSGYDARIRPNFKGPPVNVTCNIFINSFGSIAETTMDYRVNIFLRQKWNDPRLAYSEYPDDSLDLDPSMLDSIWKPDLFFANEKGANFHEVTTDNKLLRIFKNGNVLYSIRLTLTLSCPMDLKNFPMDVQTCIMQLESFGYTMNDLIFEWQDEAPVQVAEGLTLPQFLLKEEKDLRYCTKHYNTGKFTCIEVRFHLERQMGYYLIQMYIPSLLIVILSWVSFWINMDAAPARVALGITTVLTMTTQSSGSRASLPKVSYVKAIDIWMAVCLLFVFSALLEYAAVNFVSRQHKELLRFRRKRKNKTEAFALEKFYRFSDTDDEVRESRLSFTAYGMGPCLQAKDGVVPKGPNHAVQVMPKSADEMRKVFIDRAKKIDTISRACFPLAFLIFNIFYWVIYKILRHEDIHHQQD
T3 sequence (P20781 23-496): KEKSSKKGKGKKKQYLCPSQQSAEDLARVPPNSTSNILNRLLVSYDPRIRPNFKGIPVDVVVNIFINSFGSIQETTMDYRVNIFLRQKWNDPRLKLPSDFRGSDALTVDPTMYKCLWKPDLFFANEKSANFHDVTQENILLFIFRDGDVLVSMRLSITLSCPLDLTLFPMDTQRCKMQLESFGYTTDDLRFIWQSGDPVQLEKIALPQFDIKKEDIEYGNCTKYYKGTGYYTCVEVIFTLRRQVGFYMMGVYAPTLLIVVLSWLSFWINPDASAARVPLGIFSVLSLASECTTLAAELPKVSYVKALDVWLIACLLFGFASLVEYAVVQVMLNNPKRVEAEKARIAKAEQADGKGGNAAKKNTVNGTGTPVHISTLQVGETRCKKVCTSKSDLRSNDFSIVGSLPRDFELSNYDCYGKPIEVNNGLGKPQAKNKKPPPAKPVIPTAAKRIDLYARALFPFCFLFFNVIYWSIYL
Description: as §1, §2

C=C[C@]12CN(C)[C@@H]3[C@H]4CO[C@H](C[C@H]41)[C@]1(C(=O)Nc4ccccc41)[C@@H]32 [gelsemine]
lethal plasma concentrations [1]: 13 to 30 µg/mL
effect on glycine-evoked currents (in words) (chimeric α1α2 GlyR; 10 μM gelsemine, 35 μM glycine): potentiated
effect on glycine-evoked currents (in words) (chimeric α2α1 GlyR; 50 μM gelsemine, 65 μM glycine): inhibitory effect

NCC(=O)O [glycine, reference compound]
EC50 (α3β GlyR; read-out: EC50 of agonist): 243 ± 13 µM
EC50 (chimeric α1α2 GlyR; read-out: EC50 of agonist): 55 ± 3 µM
EC50 (chimeric α2α1 GlyR; read-out: EC50 of agonist): 104 ± 9 µM

C=C[C@@]12CN(C)[C@H]3C[C@]14C(=Nc1ccccc14)[C@H]1C[C@@H]2[C@@H]3CO1 [koumine]
IC50 (α3β GlyR): 20.2 ± 7.7 µM
nH (α3β GlyR; Hill coefficient of inhibition curve): 0.9 ± 0.3
Ki (α3β GlyR; calculated using the Cheng–Prussof equation): 54.1 ± 20 µM
